Measured values taken from patent publication US6369083B1, “2-methoxyimino-2 (pyrinyloxymethyl) phenyl acetamides with polyether derivatives on the pyridine ring” (Dow AgroSciences LLC, priority 1998, dated 2002).

Tests used:
Erysiphe graminis = assay: Powdery Mildew of Wheat (ERYSGT); type: in vivo; details: wheat (cultivar Monon), inoculated, sprayed at 25 ppm after 48 hours
Procedure: Compound Formulation: […] Final treatment volumes were obtained by adding nine volumes 0.05kOO aqueous Tween-20 or Triton X-100, depending upon the pathogen. Powdery Mildew of Wheat (Erysiphe graminis-[…]): Wheat (cultivar Monon) was grown in a soilless peat-based potting mixture (Metromix) until the seedlings were 1-2 leaf (BBCH 12). These plants were then inoculated with Erysiphe graminis by dusting spores from stock plants onto the test plants. After 48 hours the plants were sprayed to run off with the test compound at a rate of 25 ppm and then kept in the greenhouse until disease developed on the untreated control plants. The following table presents the activity of typical compounds of the present invention when evaluated in these experiments. The effectiveness of the test compounds in controlling disease was rated using the following scale: […]

Plasmopara viticola = assay: Downy Mildew of Grape (PLASVI), 96 hour protectant; type: in vivo; details: grape vines (cultivar Carignane), sprayed at 100 ppm, inoculated after 96 hours (protectant)
Procedure: Compound Formulation: […] Final treatment volumes were obtained by adding nine volumes 0.05kOO aqueous Tween-20 or Triton X-100, depending upon the pathogen. Downy Mildew of Grape (Plasmogara viticola-[…]) (96 Hour Protectant): Vines (cultivar Carignane) were grown from seed in a soilless peat-based potting mixture (Metromix) until the seedlings were 10-20 cm tall. These plants were then sprayed to run off with the test compound at a rate of 100 ppm. After 96 hours the test plants were inoculated by spraying with an aqueous sporangia suspension of Plasmopara viticola. The plants were then transferred to the greenhouse until disease developed on the untreated control plants. The following table presents the activity of typical compounds of the present invention when evaluated in these experiments. The effectiveness of the test compounds in controlling disease was rated using the following scale: […]

SMILES	ERYSGT control of plant disease (Erysiphe graminis)	PLASVI control of plant disease (Plasmopara viticola)
CNC(=O)C(=NOC)c1ccccc1COc1nc(OCc2ccco2)c(Cl)cc1Cl [Compound 3]	+ (+ = 25-74% control of plant disease)	++ (++ = 75-100 % control of plant disease)
CNC(=O)C(=NOC)c1ccccc1COc1nc(OCc2ccco2)c(Cl)cc1Cl [Compound 4]	− (− = 0-24% control of plant disease)	− (− = 0-24% control of plant disease)
CNC(=O)C(=NOC)c1ccccc1COc1cccc(OCC2COC(C)(C(F)(F)F)O2)n1 (stereo not shown) [Compound 6]	++ (++ = 75-100 % control of plant disease)	
CNC(=O)C(=NOC)c1ccccc1COc1cccc(OCC2(C)COC2)n1 [Compound 7]	++ (++ = 75-100 % control of plant disease)	+ (+ = 25-74% control of plant disease)
CNC(=O)C(=NOC)c1ccccc1COc1cccc(OCc2ccco2)n1 [Compound 8]	− (− = 0-24% control of plant disease)	++ (++ = 75-100 % control of plant disease)
CNC(=O)C(=NOC)c1ccccc1COc1cccc(OCC2CCCCO2)n1 (stereo not shown) [Compound 9]	+ (+ = 25-74% control of plant disease)	++ (++ = 75-100 % control of plant disease)
CNC(=O)C(=NOC)c1ccccc1COc1cccc(OCC2CCCO2)n1 (stereo not shown) [Compound 10]	++ (++ = 75-100 % control of plant disease)	+ (+ = 25-74% control of plant disease)
CNC(=O)C(=NOC)c1ccccc1COc1cccc(OCC2COC(C(F)(F)F)(C(F)(F)F)O2)n1 (stereo not shown) [Compound 11]		++ (++ = 75-100 % control of plant disease)
CNC(=O)C(=NOC)c1ccccc1COc1cccc(Sc2nnc(SC)s2)n1 [Compound 12]	− (− = 0-24% control of plant disease)	− (− = 0-24% control of plant disease)
CNC(=O)C(=NOC)c1ccccc1COc1cccc(Sc2cccs2)n1 [Compound 15]	++ (++ = 75-100 % control of plant disease)	++ (++ = 75-100 % control of plant disease)
CCOCCNc1nc(OCc2ccccc2C(=NOC)C(=O)NC)c(Cl)cc1Cl [Compound 23]	++ (++ = 75-100 % control of plant disease)	++ (++ = 75-100 % control of plant disease)
CNC(=O)C(=NOC)c1ccccc1COc1cccc(OCCOC)n1 [Compound 25]	++ (++ = 75-100 % control of plant disease)	++ (++ = 75-100 % control of plant disease)
CCCOC(C)COc1nc(OCc2ccccc2C(=NOC)C(=O)NC)c(Cl)cc1Cl (stereo not shown) [Compound 26]	++ (++ = 75-100 % control of plant disease)	+ (+ = 25-74% control of plant disease)
CNC(=O)C(=NOC)c1ccccc1COc1nc(OCC(C)OC)c(Cl)cc1Cl (stereo not shown) [Compound 28]	++ (++ = 75-100 % control of plant disease)	++ (++ = 75-100 % control of plant disease)
CCCOCCOc1nc(OCc2ccccc2C(=NOC)C(=O)NC)c(Cl)cc1Cl [Compound 29]	+ (+ = 25-74% control of plant disease)	++ (++ = 75-100 % control of plant disease)
CNC(=O)C(=NOC)c1ccccc1COc1cccc(OCC(C)OC)n1 (stereo not shown) [Compound 30]	++ (++ = 75-100 % control of plant disease)	++ (++ = 75-100 % control of plant disease)
CCCOCCOc1cccc(OCc2ccccc2C(=NOC)C(=O)NC)n1 [Compound 31]	++ (++ = 75-100 % control of plant disease)	++ (++ = 75-100 % control of plant disease)
CCCOC(C)COc1cccc(OCc2ccccc2C(=NOC)C(=O)NC)n1 (stereo not shown) [Compound 32]	++ (++ = 75-100 % control of plant disease)	

SMILES	ERYSGT control of plant disease (Erysiphe graminis)	PLASVI control of plant disease (Plasmopara viticola)
CNC(=O)C(=NOC)c1ccccc1COc1nc(OCCOC)c(Cl)cc1Cl [Compound 33]	+ (+ = 25-74% control of plant disease)	++ (++ = 75-100 % control of plant disease)
CNC(=O)C(=NOC)c1ccccc1COc1cccc(SCc2ccc(OC)cc2)n1 [Compound 34]	++ (++ = 75-100 % control of plant disease)	++ (++ = 75-100 % control of plant disease)
CCCOCCOc1cccc(OCc2ccccc2C(=NOC)C(=O)NC)n1 [Compound 36]	+ (+ = 25-74% control of plant disease)	++ (++ = 75-100 % control of plant disease)
CNC(=O)C(=NOC)c1ccccc1COc1cccc(Oc2ccc(OC)cc2)n1 [Compound 38]	++ (++ = 75-100 % control of plant disease)	
CNC(=O)C(=NOC)c1ccccc1COc1cccc(Sc2cccc(OC)c2)n1 [Compound 39]	++ (++ = 75-100 % control of plant disease)	
CNC(=O)C(=NOC)c1ccccc1COc1cccc(Sc2ccccc2OC(F)(F)F)n1 [Compound 41]	+ (+ = 25-74% control of plant disease)	++ (++ = 75-100 % control of plant disease)
CNC(=O)C(=NOC)c1ccccc1COc1cccc(Sc2ccccc2OC)n1 [Compound 42]	++ (++ = 75-100 % control of plant disease)	++ (++ = 75-100 % control of plant disease)
CNC(=O)C(=NOC)c1ccccc1COc1cccc(Sc2ccc(SC)cc2)n1 [Compound 43]	− (− = 0-24% control of plant disease)	++ (++ = 75-100 % control of plant disease)
CCSCCOc1cccc(OCc2ccccc2C(=NOC)C(=O)NC)n1 [Compound 45]	+ (+ = 25-74% control of plant disease)	++ (++ = 75-100 % control of plant disease)
CCCCOCCOc1cccc(OCc2ccccc2C(=NOC)C(=O)NC)n1 [Compound 46]	+ (+ = 25-74% control of plant disease)	++ (++ = 75-100 % control of plant disease)
CCCCSCCOc1cccc(OCc2ccccc2C(=NOC)C(=O)NC)n1 [Compound 47]	++ (++ = 75-100 % control of plant disease)	++ (++ = 75-100 % control of plant disease)
CCCCSCCOc1cccc(OCc2ccccc2C(=NOC)C(=O)NC)n1 [Compound 48]	− (− = 0-24% control of plant disease)	+ (+ = 25-74% control of plant disease)
CNC(=O)C(=NOC)c1ccccc1COc1cccc(OCCOc2ccccc2)n1 [Compound 49]	++ (++ = 75-100 % control of plant disease)	++ (++ = 75-100 % control of plant disease)
CCCOCCOc1cccc(OCc2c(F)cccc2C(=NOC)C(=O)NC)n1 [Compound 59]		++ (++ = 75-100 % control of plant disease)
CCOCCOc1cccc(OCc2c(Cl)cccc2C(=NOC)C(=O)NC)n1 [Compound 63]		++ (++ = 75-100 % control of plant disease)
CCOc1cccc(Oc2cccc(OCc3ccccc3C(=NOC)C(=O)NC)n2)c1 [Compound 67]		++ (++ = 75-100 % control of plant disease)
CCCOc1ccc(Sc2cccc(OCc3ccccc3C(=NOC)C(=O)NC)n2)cc1 [Compound 87]	++ (++ = 75-100 % control of plant disease)	
